Reference: article PMC6193938, “Characterization of a novel AICARFT inhibitor which potently elevates ZMP and has anti-tumor activity in murine models” (Scientific Reports, 2018)
Where two headings read alike, the source gives them in different places.

What was measured:
BRK = target: T1, BRK (Homo sapiens, UniProt Q13882); assay: CEREP protein kinase assay; format: biochemical
T1 construct: purchased CEREP Panlabs (Eurofins)

MDA-MB-231met2 = assay: In vitro proliferation assay (Alamar Blue); format: cell-based, human
Experimental: Cells lines were acquired from cell banks, see supplemental material, grown using the cell banks recommended culture conditions (Supplemental Table 3). In some experiments noted “low folate” the cells were washed and grown in folate free RPMI-1640 media (Gibco #27016-021) supplemented with 5 ml 1 M Hepes, 5 ml 100 mM Na pyruvate, 2.5 mg/ml glucose and 10% defined FBS (Hyclone #SH30070) per 500 mL media for 5–7 days to deplete intracellular folate levels prior to the start of the experiment. Where noted, cells were maintained in complete “high folate” RPMI-1640 media (ATCC #30-2001) with 10% defined FBS to contrast with the low folate conditions. […]
Cells were cultured using recommended culture conditions unless noted otherwise (Supplemental Table 3). Cells were plated, dosed with compound and incubated at 37 °C for approximately 2 doubling times as determined for each cell line. Cell Titer Glo (Promega) assay was used to measure proliferation according to manufacturer’s recommendations by measuring luminescence with Flexstation3 (Molecular Devices) with 500 ms integration time. […]
For a limited number of cell lines, compound dosing was performed under high or low folate conditions with cell viability being determined with Alamar Blue rather than an ATP dependent assay. […] The % inhibition for each sample was calculated and fit as described above.

RSK1 = target: T2, RSK1 (Homo sapiens, UniProt Q15418); assay: CEREP protein kinase assay; format: biochemical
T2 construct: purchased CEREP Panlabs (Eurofins)
T2 sequence (Q15418 whole entry): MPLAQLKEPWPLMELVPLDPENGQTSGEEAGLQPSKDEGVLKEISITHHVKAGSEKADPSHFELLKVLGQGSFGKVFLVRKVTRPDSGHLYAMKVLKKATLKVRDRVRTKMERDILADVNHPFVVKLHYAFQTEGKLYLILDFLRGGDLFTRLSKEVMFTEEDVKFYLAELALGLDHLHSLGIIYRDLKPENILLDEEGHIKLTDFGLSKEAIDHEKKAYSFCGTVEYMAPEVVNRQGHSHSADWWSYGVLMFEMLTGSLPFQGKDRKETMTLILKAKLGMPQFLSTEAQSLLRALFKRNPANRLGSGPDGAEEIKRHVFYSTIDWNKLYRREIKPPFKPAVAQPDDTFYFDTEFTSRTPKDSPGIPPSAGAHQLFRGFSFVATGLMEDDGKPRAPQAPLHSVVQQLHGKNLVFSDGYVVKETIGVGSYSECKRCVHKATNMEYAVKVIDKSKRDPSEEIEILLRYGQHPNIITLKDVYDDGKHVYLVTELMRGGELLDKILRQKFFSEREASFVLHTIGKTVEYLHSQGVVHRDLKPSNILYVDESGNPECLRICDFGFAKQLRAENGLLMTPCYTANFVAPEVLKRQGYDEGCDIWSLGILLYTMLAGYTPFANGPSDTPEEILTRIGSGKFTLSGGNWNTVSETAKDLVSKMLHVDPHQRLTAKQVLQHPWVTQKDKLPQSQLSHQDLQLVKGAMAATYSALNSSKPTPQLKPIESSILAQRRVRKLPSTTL

MDA-MB-231 (mammary) = assay: MS detection of ZMP in cultured cells; format: cell-based, human; details: for EC50: Homo sapiens, 16 hours
Experimental: (§1) Cells lines were acquired from cell banks, see supplemental material, grown using the cell banks recommended culture conditions (Supplemental Table 3). In some experiments noted “low folate” the cells were washed and grown in folate free RPMI-1640 media (Gibco #27016-021) supplemented with 5 ml 1 M Hepes, 5 ml 100 mM Na pyruvate, 2.5 mg/ml glucose and 10% defined FBS (Hyclone #SH30070) per 500 mL media for 5–7 days to deplete intracellular folate levels prior to the start of the experiment. Where noted, cells were maintained in complete “high folate” RPMI-1640 media (ATCC #30-2001) with 10% defined FBS to contrast with the low folate conditions.
(§2) ZMP was detected in cultured cells via mass spec analysis. Cells were plated in 96-well plates at 25,000 cells per well in 100 µL with either high or low folate RPMI media and incubated overnight at 37 °C with 5% CO2. Cells were treated with inhibitor compounds for 16 hours, 0.5% DMSO final concentration. Growth media was decanted and cells were lysed for 10 min at room temperature with 50 µL per well of 1x Sure Fire Lysis buffer (Perkin Elmer, SureFire kit component). Aliquots (40 µL) of standard or sample were combined in a deep 96-well plate with 160 µL of internal standard solution containing ^13C5-ZMP (custom synthesis) and ^13C5-AICAr (custom synthesis) at 100 ng/mL in 40 mM ammonium acetate, pH 4. 400 µL of dichloromethane was added to each sample. Samples were sealed, vortexed for 5 minutes, and placed in the refrigerator for at least 30 minutes. The samples were centrifuged at 4 °C for 10 minutes at 16,600 g. 75 µL of the aqueous layer were transferred to a clean 96-well plate and seal prior to analysis.
(§3) The LC-MS method utilizes a Shimadzu Prominence 20 A HPLC system connected to an AB Sciex 5500™ or an AB Sciex 6500™ triple quadrupole mass spectrometer. Extracted samples were separated using a Thermo Hypercarb™ Javelin guard column (2.1 × 20 mm, 5 µm) with an injection volume of 15 µL and a flow rate of 1 mL/minute.
(§4) ZMP, AICAr and dUMP were detected using positive ion TurboIonSpray® multiple reaction monitoring mode and the data were processed with AB Sciex MultiQuant™. Back-calculated ZMP concentrations were fit to a four-parameter logistic equation using ACTIVITYBASE 4.0 to determine EC50 values relative to the maximum observed metabolite levels.

NCI-H460 (lung) = assay: MS detection of ZMP in cultured cells; format: cell-based, human; details: for EC50: 16 hours; for peak intracellular ZMP levels: NCI-H460 cells, calculated with 4 pL cell volume
Experimental: as §1, §2, §3, §4

ROCK2 = target: T3, ROCK2 (Homo sapiens, UniProt O75116); assay: CEREP protein kinase assay; format: biochemical
T3 construct: purchased CEREP Panlabs (Eurofins)
T3 sequence (O75116 whole entry): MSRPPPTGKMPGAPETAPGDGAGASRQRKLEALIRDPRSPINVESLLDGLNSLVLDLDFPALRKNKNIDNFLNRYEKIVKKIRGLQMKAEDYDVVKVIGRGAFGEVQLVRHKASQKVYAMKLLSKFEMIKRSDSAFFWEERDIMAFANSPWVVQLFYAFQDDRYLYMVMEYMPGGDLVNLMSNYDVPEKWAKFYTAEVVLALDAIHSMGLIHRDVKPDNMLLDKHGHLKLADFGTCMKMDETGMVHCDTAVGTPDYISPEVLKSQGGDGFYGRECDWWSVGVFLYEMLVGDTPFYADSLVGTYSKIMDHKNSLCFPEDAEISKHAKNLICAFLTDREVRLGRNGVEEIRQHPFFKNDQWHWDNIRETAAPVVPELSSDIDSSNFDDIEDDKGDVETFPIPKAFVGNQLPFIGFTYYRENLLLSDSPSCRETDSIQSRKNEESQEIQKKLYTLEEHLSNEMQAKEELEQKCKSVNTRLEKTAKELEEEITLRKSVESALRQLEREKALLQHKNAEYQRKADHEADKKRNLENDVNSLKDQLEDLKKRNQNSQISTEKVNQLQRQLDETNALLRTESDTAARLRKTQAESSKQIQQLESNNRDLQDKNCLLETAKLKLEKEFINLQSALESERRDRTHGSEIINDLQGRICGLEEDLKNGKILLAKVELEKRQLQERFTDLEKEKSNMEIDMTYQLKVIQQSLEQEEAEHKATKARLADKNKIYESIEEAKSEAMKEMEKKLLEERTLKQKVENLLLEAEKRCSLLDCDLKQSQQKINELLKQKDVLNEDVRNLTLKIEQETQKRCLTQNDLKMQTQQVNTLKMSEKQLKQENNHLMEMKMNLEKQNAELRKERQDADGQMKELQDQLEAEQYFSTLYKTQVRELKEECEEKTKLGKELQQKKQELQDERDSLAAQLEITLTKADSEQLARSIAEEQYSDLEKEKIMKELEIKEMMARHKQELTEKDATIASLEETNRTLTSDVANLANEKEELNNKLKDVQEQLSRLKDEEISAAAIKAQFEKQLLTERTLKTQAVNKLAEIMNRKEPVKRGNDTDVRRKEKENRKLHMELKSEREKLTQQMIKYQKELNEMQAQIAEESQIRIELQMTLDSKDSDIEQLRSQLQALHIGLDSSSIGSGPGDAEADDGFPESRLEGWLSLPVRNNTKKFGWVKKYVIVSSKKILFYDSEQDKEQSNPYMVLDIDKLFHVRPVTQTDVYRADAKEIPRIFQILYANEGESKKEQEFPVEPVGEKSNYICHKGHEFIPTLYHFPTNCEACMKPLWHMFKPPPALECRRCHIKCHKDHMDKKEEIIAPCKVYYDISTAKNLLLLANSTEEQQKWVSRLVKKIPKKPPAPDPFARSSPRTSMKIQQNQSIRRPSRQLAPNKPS

DYRK2 = target: T4, DYRK2 (Homo sapiens, UniProt Q92630); assay: CEREP protein kinase assay; format: biochemical
T4 construct: purchased CEREP Panlabs (Eurofins)
T4 sequence (Q92630 1-601): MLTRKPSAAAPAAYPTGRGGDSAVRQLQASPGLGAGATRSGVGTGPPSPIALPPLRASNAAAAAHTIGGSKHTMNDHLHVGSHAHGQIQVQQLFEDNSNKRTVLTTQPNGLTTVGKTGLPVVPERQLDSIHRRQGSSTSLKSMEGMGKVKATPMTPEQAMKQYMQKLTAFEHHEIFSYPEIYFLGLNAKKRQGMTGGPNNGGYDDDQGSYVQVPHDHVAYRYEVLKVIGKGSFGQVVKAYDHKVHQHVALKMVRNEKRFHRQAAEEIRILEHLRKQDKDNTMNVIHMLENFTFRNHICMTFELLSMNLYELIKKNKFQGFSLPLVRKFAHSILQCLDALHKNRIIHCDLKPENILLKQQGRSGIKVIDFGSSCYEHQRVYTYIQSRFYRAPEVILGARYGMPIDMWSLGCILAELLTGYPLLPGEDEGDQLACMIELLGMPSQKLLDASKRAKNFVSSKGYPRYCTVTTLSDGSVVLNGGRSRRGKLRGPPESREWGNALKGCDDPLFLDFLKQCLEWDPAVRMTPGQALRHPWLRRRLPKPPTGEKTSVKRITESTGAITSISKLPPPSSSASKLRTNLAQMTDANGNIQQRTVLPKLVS

LCK = target: T5, LCK (Homo sapiens, UniProt P06239); assay: CEREP protein kinase assay; format: biochemical
T5 construct: purchased CEREP Panlabs (Eurofins)
T5 sequence (P06239 whole entry): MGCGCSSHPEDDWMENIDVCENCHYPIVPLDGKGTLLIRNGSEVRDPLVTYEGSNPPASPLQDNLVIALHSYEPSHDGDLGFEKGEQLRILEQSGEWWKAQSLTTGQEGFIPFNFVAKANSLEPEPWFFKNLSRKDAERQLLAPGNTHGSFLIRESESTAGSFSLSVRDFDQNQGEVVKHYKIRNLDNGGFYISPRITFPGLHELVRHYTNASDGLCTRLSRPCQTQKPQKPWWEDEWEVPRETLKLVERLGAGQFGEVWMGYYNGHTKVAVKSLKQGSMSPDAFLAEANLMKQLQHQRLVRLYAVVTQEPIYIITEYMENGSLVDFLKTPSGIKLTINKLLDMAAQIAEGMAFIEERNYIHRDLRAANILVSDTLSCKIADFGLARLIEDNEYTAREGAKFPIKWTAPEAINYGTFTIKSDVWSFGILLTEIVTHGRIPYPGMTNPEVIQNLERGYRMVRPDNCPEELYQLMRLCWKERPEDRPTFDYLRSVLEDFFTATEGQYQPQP

T1 sequence (Q13882 whole entry): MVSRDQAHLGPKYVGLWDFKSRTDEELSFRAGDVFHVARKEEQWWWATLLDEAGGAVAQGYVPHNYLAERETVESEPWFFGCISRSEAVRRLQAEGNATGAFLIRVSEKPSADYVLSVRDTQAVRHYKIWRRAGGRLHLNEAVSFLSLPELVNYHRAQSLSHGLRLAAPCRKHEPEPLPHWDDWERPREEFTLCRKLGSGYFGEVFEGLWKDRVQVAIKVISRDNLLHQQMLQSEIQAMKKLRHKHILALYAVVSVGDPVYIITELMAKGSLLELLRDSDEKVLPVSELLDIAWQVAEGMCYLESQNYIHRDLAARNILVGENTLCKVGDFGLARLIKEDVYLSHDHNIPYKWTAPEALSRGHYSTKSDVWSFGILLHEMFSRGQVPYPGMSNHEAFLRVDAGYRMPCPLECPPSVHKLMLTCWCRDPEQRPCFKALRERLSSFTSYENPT

O=c1[nH]ccc2cc(F)c(NS(=O)(=O)c3ccc(N4CC[C@@H](O)C4)s3)cc12 [LSN3213128, N-(6-Fluoro-1-oxo-1,2-dihydroisoquinolin-7-yl)-5-[(3R)-3-hydroxypyrrolidin-1-yl]thiophene-2-sulfonamide]
inhibition at 0.2 µM (BRK; @ 0.2 uM): -32.5%
inhibition at 2 µM (BRK; @ 2 uM): -9.31%
inhibition at 20 µM (BRK; @ 20 uM): -3.2%
anti-proliferative effect on supplementation with hypoxanthine (MDA-MB-231met2; 32 μM hypoxanthine): completely abrogated
GI50 (MDA-MB-231met2; Homo sapiens, RPMI media, Alamar Blue): 88 nM
inhibition at 0.2 µM (RSK1; @ 0.2 uM): 0.638%
inhibition at 2 µM (RSK1; @ 2 uM): 8.18%
inhibition at 20 µM (RSK1; @ 20 uM): 11.4%
EC50 (MDA-MB-231 (mammary); RPMI media, read-out: ZMP EC50 Regular folate): 89 nM
EC50 (MDA-MB-231 (mammary); low folate RPMI media, read-out: ZMP EC50 Low folate): 7.6 nM
dUMP levels in tissue culture (MDA-MB-231 (mammary); data not shown): does not alter
EC50 (NCI-H460 (lung); Homo sapiens, NCI-H460, 16 h, NCI-H460, RPMI media, read-out: ZMP EC50 Regular folate): 438 nM
EC50 (NCI-H460 (lung); Homo sapiens, NCI-H460, 16 h, NCI-H460, low folate RPMI media, read-out: ZMP EC50 Low folate): 8 nM
EC50 (NCI-H460 (lung); NCI-H460, RPMI media, read-out: ZMP EC50 Regular folate): 428 ± 102 nM
dUMP levels in tissue culture (NCI-H460 (lung); NCI-H460, data not shown): does not alter
peak intracellular ZMP levels (NCI-H460 (lung); low folate media): 540 µM
peak intracellular ZMP levels (NCI-H460 (lung); regular RPMI): about 2,700 μM
inhibition at 0.2 µM (ROCK2; @ 0.2 uM): -3.09%
inhibition at 2 µM (ROCK2; @ 2 uM): 4.72%
inhibition at 20 µM (ROCK2; @ 20 uM): 5.81%
inhibition at 0.2 µM (DYRK2; @ 0.2 uM): -2.01%
inhibition at 2 µM (DYRK2; @ 2 uM): -0.829%
inhibition at 20 µM (DYRK2; @ 20 uM): 11.7%
inhibition at 0.2 µM (LCK; @ 0.2 uM): -24.6%
inhibition at 2 µM (LCK; @ 2 uM): -4.9%
inhibition at 20 µM (LCK; @ 20 uM): 2.61%
